Tested on: MV4-11 cells
Assay: MV4-11 Cytotoxicity Assay
Format: cell-based, human
Conditions: Homo sapiens, MV4-11; 72 hr, CCK-8; read-out: MV4-11 cytotoxicity

## Cc1sc2c(c1C)C(c1ccc(Cl)cc1)=N[C@@H](CC(=O)NCC(=O)NCCOCCOc1ccc(-n3c(O)nnc3-c3cc(C(C)C)c(O)cc3O)cc1)c1nnc(C)n1-2 [Compound 55, (S)-2-(4-(4-chlorophenyl)-2,3,9-trimethyl-6H-thieno[3,2-f][1,2,4]triazolo[4,3-a][1,4]diazepin-6-yl)-N-(2-((2-(2-(4-(3-(2,4-dihydroxy-5-isopropylphenyl)-5-hydroxy-4H-1,2,4-triazol-4-yl)phenoxy)ethoxy)ethyl)amino)-2-oxoethyl)acetamide]
  IC50: 100 to 1000 nM

## CCc1cc(-c2nnc(O)n2-c2ccc(CNC(=O)C[C@@H]3N=C(c4ccc(Cl)cc4)c4c(sc(C)c4C)-n4c(C)nnc43)cc2)c(O)cc1O [Compound 56, 2-((6S)-4-(4-chlorophenyl)-2,3,9-trimethyl-6H-thieno[3,2-f][1,2,4]triazolo[4,3-a][1,4]diazepin-6-yl)-N-(4-(3-(5-ethyl-2,4-dihydroxyphenyl)-5-hydroxy-4H-1,2,4-triazol-4-yl)benzyl)acetamide]
  IC50: 100 to 1000 nM

## Cc1sc2c(c1C)C(c1ccc(Cl)cc1)=N[C@@H](CC(=O)NCC(=O)NCc1ccc(-n3c(O)nnc3-c3cc(C(C)C)c(O)cc3O)cc1)c1nnc(C)n1-2 [Compound 57, 2-((6S)-4-(4-chlorophenyl)-2,3,9-trimethyl-6H-thieno[3,2-f][1,2,4]triazolo[4,3-a][1,4]diazepin-6-yl)-N-(2-((4-(3-(2,4-dihydroxy-5-isopropylphenyl)-5-hydroxy-4H-1,2,4-triazol-4-yl)benzyl)amino)-2-oxoethyl)acetamide]
  IC50: 100 to 1000 nM

## Cc1sc2c(c1C)C(c1ccc(Cl)cc1)=N[C@@H](CC(=O)NCC1CN(C(=O)C3CCN(Cc4ccc(-n5c(O)nnc5-c5cc(C(C)C)c(O)cc5O)cc4)CC3)C1)c1nnc(C)n1-2 [Compound 59, 2-((6S)-4-(4-chlorophenyl)-2,3,9-trimethyl-6H-thieno[3,2-f][1,2,4]triazolo[4,3-a][1,4]diazepin-6-yl)-N-((1-(1-(4-(3-(2,4-dihydroxy-5-isopropylphenyl)-5-hydroxy-4H-1,2,4-triazol-4-yl)benzyl)piperidine-4-carbonyl)azetidin-3-yl)methyl)acetamide, trifluoroacetic acid]
  IC50: < 100 nM

## Cc1sc2c(c1C)C(c1ccc(Cl)cc1)=N[C@@H](CC(=O)NCC(=O)NCC1CN(C(=O)C3CCN(Cc4ccc(-n5c(O)nnc5-c5cc(C(C)C)c(O)cc5O)cc4)CC3)C1)c1nnc(C)n1-2 [Compound 60, 2-((6S)-4-(4-chlorophenyl)-2,3,9-trimethyl-6H-thieno[3,2-f][1,2,4]triazolo[4,3-a][1,4]diazepin-6-yl)-N-(2-(((1-(1-(4-(3-(2,4-dihydroxy-5-isopropylphenyl)-5-hydroxy-4H-1,2,4-triazol-4-yl)benzyl)piperidine-4-carbonyl)azetidin-3-yl)methyl)amino)-2-oxoethyl)acetamide, trifluoroacetic acid]
  IC50: < 100 nM

## Cc1sc2c(c1C)C(c1ccc(Cl)cc1)=N[C@@H](CCNCCOc1ccc(-n3c(O)nnc3-c3cc(C(C)C)c(O)cc3O)cc1)c1nnc(C)n1-2 [Compound 62, (S)-4-(4-(4-(2-((2-(4-(4-chlorophenyl)-2,3,9-trimethyl-6H-thieno[3,2-f][1,2,4]triazolo[4,3-a][1,4]diazepin-6-yl)ethyl)amino)ethoxy)phenyl)-5-hydroxy-4H-1,2,4-triazol-3-yl)-6-isopropylbenzene-1,3-diol, trifluoroacetic acid]
  IC50: 100 to 1000 nM

## Cc1sc2c(c1C)C(c1ccc(Cl)cc1)=N[C@@H](CCNCCOCCOc1ccc(-n3c(O)nnc3-c3cc(C(C)C)c(O)cc3O)cc1)c1nnc(C)n1-2 [Compound 63, (S)-4-(4-(4-(2-(2-((2-(4-(4-chlorophenyl)-2,3,9-trimethyl-6H-thieno[3,2-f][1,2,4]triazolo[4,3-a][1,4]diazepin-6-yl)ethyl)amino)ethoxy)ethoxy)phenyl)-5-hydroxy-4H-1,2,4-triazol-3-yl)-6-isopropylbenzene-1,3-diol, trifluoroacetic acid]
  IC50: 100 to 1000 nM

Source: patent US12540143B2, “Methods and compositions for targeted protein degradation” (Ranok Therapeutics (Hangzhou) Co. Ltd., priority 2019, dated 2026)
